Test results: ChEMBL document CHEMBL1138695, “Synthesis of stavudine amino acid ester prodrugs with broad-spectrum chemotherapeutic properties for the effective treatment of HIV/AIDS” (Bioorg Med Chem Lett, 2004)
In brackets after ≈: the same amount, converted by molar mass.

Legend:
Salmonella typhi = assay: Antibacterial activity against […] Salmonella typhi; type: functional, Salmonella enterica subsp. enterica serovar Typhi; details: Salmonella enterica
Salmonella typhimurium = assay: Antibacterial activity against Salmonella Typhimurium; type: functional, Salmonella enterica subsp. enterica serovar Typhimurium; details: Salmonella enterica
Citrobacter freundii = assay: Antibacterial activity against Citrobacter ferundii; type: functional
Enterobacter = assay: Antibacterial activity against Enterobacter; type: functional
Vibrio mimicus = assay: Antibacterial activity against Vibrio mimicus; type: functional
Vibrio parahaemolyticus = assay: Antibacterial activity against Vibrio parahaemolyticus; type: functional
Escherichia coli = assay: Antibacterial activity against Escherichia coli NCTC 10418; type: functional
Shigella sonnei = assay: Antibacterial activity against Shigella sonnei; type: functional
Salmonella enteritidis = assay: Antibacterial activity against Salmonella enteritidis; type: functional, Salmonella enterica subsp. enterica serovar Enteritidis; details: Salmonella enterica
Salmonella paratyphi = assay: Antibacterial activity against Salmonella paratyphi A; type: functional, Salmonella enterica subsp. enterica serovar Paratyphi A; details: Salmonella enterica
Vibrio cholerae [1] = assay: Antibacterial activity against Vibrio cholerae 0139; type: functional
Edwardsiella tarda = assay: Antibacterial activity against Edwardsiella tarda; type: functional
Klebsiella pneumoniae [2] = assay: Antibacterial activity against Klebsiella ozaenae; type: functional; details: subsp. ozaenae
Klebsiella pneumoniae [3] = assay: Antibacterial activity against Klebsiella pneumoniae; type: functional
Vibrio fluvialis = assay: Antibacterial activity against Vibrio fluvialis; type: functional
Staphylococcus aureus = assay: Antibacterial activity against Staphylococcus aureus; type: functional
Vibrio cholerae [4] = assay: Antibacterial activity against Vibrio cholerae 01; type: functional
Priestia megaterium = assay: Antibacterial activity against Bacillus megatherium; type: functional
Shigella boydii = assay: Antibacterial activity against Shigella boydii; type: functional
Proteus vulgaris = assay: Antibacterial activity against Proteus vulgaris; type: functional
Morganella morganii = assay: Antibacterial activity against Morganella morganii; type: functional
Proteus mirabilis = assay: Antibacterial activity against Proteus mirabilis; type: functional
Plesiomonas shigelloides = assay: Antibacterial activity against Plesiomonas shigelloides; type: functional
Pseudomonas aeruginosa = assay: Antibacterial activity against Pseudomonas aeruginosa; type: functional
[5] = test system: Mycobacterium tuberculosis; assay: Antimycobacterial activity against Mycobacterium tuberculosis strain H37Rv; type: functional; design: concentration or dose not given beside the values
[6] = In vitro hydrolysis in human plasma; type: ADME, cell-free
[7] = Selectivity index expressed as the ratio of CC50 to EC50; type: functional
CCRF-CEM [8] = assay: Cytotoxic concentration of compound required to reduce the viability of mock infected CEM cells by 50%; type: functional; details: Homo sapiens
CCRF-CEM [9] = assay: Effective concentration of compound achieving 50% protection in CEM cell lines against the cytopathic effect of HIV-1; type: functional, cell-based; details: Homo sapiens

Row | SMILES | MIC (Salmonella typhimurium) [µg/mL] | MIC (Citrobacter freundii) [µg/mL] | MIC (Enterobacter) [µg/mL] | MIC (Vibrio mimicus) [µg/mL] | MIC (Vibrio parahaemolyticus) [µg/mL] | MIC (Escherichia coli) [µg/mL] | MIC (Shigella sonnei) [µg/mL] | MIC (Salmonella enteritidis) [µg/mL] | MIC (Vibrio cholerae [1]) [µg/mL] | MIC (Edwardsiella tarda) [µg/mL] | MIC (Klebsiella pneumoniae [2]) [µg/mL] | MIC (Klebsiella pneumoniae [3]) [µg/mL] | MIC (Vibrio fluvialis) [µg/mL] | MIC (Staphylococcus aureus) [µg/mL] | MIC (Vibrio cholerae [4]) [µg/mL] | MIC (Priestia megaterium) [µg/mL] | MIC (Shigella boydii) [µg/mL] | Selectivity index [7] | CC50 (CCRF-CEM [8]) [µM] | EC50 (CCRF-CEM [9]) [µM] | further results
1 | O=C(O)c1cn(C2CC2)c2cc(N3CCNCC3)c(F)cc2c1=O [CIPROFLOXACIN] | 0.0095 (≈ 0.0287 µM) | 0.0095 (≈ 0.0287 µM) | 0.019 (≈ 0.0573 µM) | 0.0095 (≈ 0.0287 µM) | 0.0095 (≈ 0.0287 µM) | 0.019 (≈ 0.0573 µM) | 0.0095 (≈ 0.0287 µM) | 0.0095 (≈ 0.0287 µM) | 0.0095 (≈ 0.0287 µM) | 0.0095 (≈ 0.0287 µM) | 0.0381 (≈ 0.115 µM) | 0.0095 (≈ 0.0287 µM) | 0.0095 (≈ 0.0287 µM) | 0.0095 (≈ 0.0287 µM) | 0.0095 (≈ 0.0287 µM) | 0.0095 (≈ 0.0287 µM) | 0.0095 (≈ 0.0287 µM) |  |  |  | MIC (Salmonella typhi): 0.019 µg/mL (≈ 0.0573 µM); MIC (Salmonella paratyphi): 0.019 µg/mL (≈ 0.0573 µM); MIC (Proteus vulgaris): 0.019 µg/mL (≈ 0.0573 µM); MIC (Morganella morganii): 0.0095 µg/mL (≈ 0.0287 µM); MIC (Proteus mirabilis): 0.0095 µg/mL (≈ 0.0287 µM); MIC (Plesiomonas shigelloides): 0.019 µg/mL (≈ 0.0573 µM); MIC (Pseudomonas aeruginosa): 0.0381 µg/mL (≈ 0.115 µM)
2 | Cc1cn(C2C=CC(COC(=O)CNNC(=O)c3ccncc3)O2)c(=O)[nH]c1=O (stereo unspecified) | 1250 (≈ 3110 µM) | 1250 (≈ 3110 µM) | 312 (≈ 779 µM) | 4.88 (≈ 12.2 µM) | 1250 (≈ 3110 µM) | 156 (≈ 389 µM) | 156 (≈ 389 µM) | 4.88 (≈ 12.2 µM) | 156 (≈ 389 µM) | 156 (≈ 389 µM) | 9.76 (≈ 24.3 µM) | 1250 (≈ 3110 µM) | 1250 (≈ 3110 µM) | 156 (≈ 389 µM) | 1250 (≈ 3110 µM) | 2.44 (≈ 6.08 µM) | 4.88 (≈ 12.2 µM) | > 497 | > 200 | 0.402 | MIC (Salmonella typhi): 156 µg/mL (≈ 389 µM); Inhibition [5]: 90%; MIC (Salmonella paratyphi): 9.77 µg/mL (≈ 24.3 µM); half-life [6]: 1 h; MIC (Proteus vulgaris): 312 µg/mL (≈ 779 µM); MIC (Morganella morganii): 156 µg/mL (≈ 389 µM); MIC (Proteus mirabilis): 2.44 µg/mL (≈ 6.08 µM); MIC (Plesiomonas shigelloides): 312 µg/mL (≈ 779 µM); MIC (Pseudomonas aeruginosa): 1250 µg/mL (≈ 3110 µM)
3 | Cc1cn(C2C=CC(COC(=O)CNC(=O)c3ccncn3)O2)c(=O)[nH]c1=O (stereo unspecified) | 1250 (≈ 3230 µM) | 1250 (≈ 3230 µM) | 39.1 (≈ 101 µM) | 78.1 (≈ 202 µM) | 1250 (≈ 3230 µM) | 1250 (≈ 3230 µM) | 312 (≈ 807 µM) | 1250 (≈ 3230 µM) | 1250 (≈ 3230 µM) | 1250 (≈ 3230 µM) | 1250 (≈ 3230 µM) | 1250 (≈ 3230 µM) | 1250 (≈ 3230 µM) | 1250 (≈ 3230 µM) | 1250 (≈ 3230 µM) | 39.1 (≈ 101 µM) | 312 (≈ 807 µM) | 1090 | 567 | 0.52 | Inhibition [5]: 0%; half-life [6]: 1 h; MIC (Proteus vulgaris): 1250 µg/mL (≈ 3230 µM); MIC (Morganella morganii): 312 µg/mL (≈ 807 µM); MIC (Proteus mirabilis): 1250 µg/mL (≈ 3230 µM); MIC (Plesiomonas shigelloides): 312 µg/mL (≈ 807 µM); MIC (Pseudomonas aeruginosa): 1250 µg/mL (≈ 3230 µM)
4 | Cc1cn(C2C=CC(COC(=O)CN3CCN(c4cc5c(cc4F)c(=O)c(C(=O)O)cn5C4CC4)CC3)O2)c(=O)[nH]c1=O (stereo unspecified) | 0.3 (≈ 0.504 µM) | 0.61 (≈ 1.02 µM) | 0.3 (≈ 0.504 µM) | 0.3 (≈ 0.504 µM) | 0.3 (≈ 0.504 µM) | 0.3 (≈ 0.504 µM) | 4.88 (≈ 8.19 µM) | 0.61 (≈ 1.02 µM) | 0.61 (≈ 1.02 µM) | 4.88 (≈ 8.19 µM) | 1.22 (≈ 2.05 µM) | 1.22 (≈ 2.05 µM) | 0.61 (≈ 1.02 µM) | 4.88 (≈ 8.19 µM) | 0.3 (≈ 0.504 µM) | 0.3 (≈ 0.504 µM) | 0.61 (≈ 1.02 µM) | 11.2 | 695 | 61.8 | Inhibition [5]: 100%; half-life [6]: 4 h; MIC (Proteus vulgaris): 4.88 µg/mL (≈ 8.19 µM); MIC (Morganella morganii): 0.61 µg/mL (≈ 1.02 µM); MIC (Proteus mirabilis): 0.3 µg/mL (≈ 0.504 µM); MIC (Plesiomonas shigelloides): 0.61 µg/mL (≈ 1.02 µM); MIC (Pseudomonas aeruginosa): 1.22 µg/mL (≈ 2.05 µM)
5 | Cc1cn(C2C=CC(COC(=O)CN(C)C)O2)c(=O)[nH]c1=O (stereo unspecified) |  |  |  |  |  |  |  |  |  |  |  |  |  |  |  |  |  | 1330 | 456 | 0.343 | half-life [6]: 0.5 h
6 | Cc1cn(C2C=CC(COC(=O)CN3CCNCC3)O2)c(=O)[nH]c1=O (stereo unspecified) |  |  |  |  |  |  |  |  |  |  |  |  |  |  |  |  |  | > 15700 | > 1000 | < 0.0636 | half-life [6]: 0.333 h
7 | Cc1cn([C@H]2C=C[C@@H](CO)O2)c(=O)[nH]c1=O [STAVUDINE] |  |  |  |  |  |  |  |  |  |  |  |  |  |  |  |  |  | > 1110 | > 100 | 0.09 | Inhibition [5]: 0%
8 | CCn1cc(C(=O)O)c(=O)c2cc(F)c(N3CCNCC3)cc21 [NORFLOXACIN] | 0.0763 (≈ 0.239 µM) | 0.0381 (≈ 0.119 µM) | 0.0763 (≈ 0.239 µM) | 0.153 (≈ 0.478 µM) | 0.0763 (≈ 0.239 µM) | 0.0381 (≈ 0.119 µM) | 0.0381 (≈ 0.119 µM) | 0.0381 (≈ 0.119 µM) | 0.0763 (≈ 0.239 µM) | 0.0381 (≈ 0.119 µM) | 0.0381 (≈ 0.119 µM) | 0.0381 (≈ 0.119 µM) | 0.0763 (≈ 0.239 µM) | 0.153 (≈ 0.478 µM) | 0.0763 (≈ 0.239 µM) | 0.0763 (≈ 0.239 µM) | 0.0381 (≈ 0.119 µM) |  |  |  | MIC (Salmonella typhi): 0.0763 µg/mL (≈ 0.239 µM); MIC (Salmonella paratyphi): 0.0381 µg/mL (≈ 0.119 µM); MIC (Proteus vulgaris): 0.0381 µg/mL (≈ 0.119 µM); MIC (Morganella morganii): 0.0763 µg/mL (≈ 0.239 µM); MIC (Proteus mirabilis): 0.0763 µg/mL (≈ 0.239 µM); MIC (Plesiomonas shigelloides): 0.0763 µg/mL (≈ 0.239 µM); MIC (Pseudomonas aeruginosa): 0.0763 µg/mL (≈ 0.239 µM)
9 | CCn1cc(C(=O)O)c(=O)c2cc(F)c(N3CCN(CC(=O)OCC4C=CC(n5cc(C)c(=O)[nH]c5=O)O4)CC3)cc21 (stereo unspecified) | 9.76 (≈ 16.7 µM) | 2.44 (≈ 4.18 µM) | 0.3 (≈ 0.514 µM) | 0.61 (≈ 1.05 µM) | 1.22 (≈ 2.09 µM) | 1.22 (≈ 2.09 µM) | 9.76 (≈ 16.7 µM) | 9.76 (≈ 16.7 µM) | 0.61 (≈ 1.05 µM) | 9.76 (≈ 16.7 µM) | 1.22 (≈ 2.09 µM) | 1.22 (≈ 2.09 µM) | 9.76 (≈ 16.7 µM) | 9.76 (≈ 16.7 µM) | 0.61 (≈ 1.05 µM) | 0.3 (≈ 0.514 µM) | 0.61 (≈ 1.05 µM) | 2.1 | 210 | 100 | Inhibition [5]: 98%; MIC (Salmonella paratyphi): 1.22 µg/mL (≈ 2.09 µM); half-life [6]: > 4 h; MIC (Proteus vulgaris): 9.76 µg/mL (≈ 16.7 µM); MIC (Morganella morganii): 9.76 µg/mL (≈ 16.7 µM); MIC (Proteus mirabilis): 1.22 µg/mL (≈ 2.09 µM); MIC (Plesiomonas shigelloides): 9.76 µg/mL (≈ 16.7 µM); MIC (Pseudomonas aeruginosa): 1.22 µg/mL (≈ 2.09 µM)
